Reference: US9260382B2, “Methods of reducing virulence in bacteria” (priority 2010, dated 2016)
Several values for one entry are separate records, joined by “and”; a condition that tells them apart may be missing. Equal entries are not always repeated.

Columns and labels:
rsmB RNA = experiment: qRT-PCR relative mRNA level of rsmB; assay type: cell-based, Dickeya dadantii 3937; settings: Ech3937 in MM supplemented with compound
Method: Bacterial strains were grown in MM. Total RNA from the bacterial cells was isolated by using the TRI reagent method (Sigma, Mo.) and treated with Turbo DNA-free DNase kits (Ambion, Tex.) as described (Peng et al., 2006). An iScript cDNA Synthesis Kit (Bio-Rad, CA) was used to synthesize cDNA from 0.5 μg of treated total RNA. The Real Master Mix (Eppendorf, Westbury, N.Y.) was used for qRT-PCR reaction to quantify the cDNA level of target genes in different samples. The rplU was used as the endogenous control for data analysis. qRT-PCR data were analyzed using Relative Expression Software Tool as described (Pfaffl, M. W., Horgan, G. W., and Dempfle, L. (2002) Relative expression software tool (REST) for group-wise comparison and statistical analysis of relative expression results in real-time PCR. Nucleic Acids Res 30:e36.).

hrpN promoter (T3SS) = experiment: GFP reporter plasmid phrpN, flow cytometry of hrpN promoter activity; assay type: cell-based, Dickeya dadantii 3937; settings: for GFP Mean Fluorescence Intensity, hrpN promoter: MM + 0.1 mM compound
Method: (§1) FACS analysis of promoter activity of dspE, hrpA, hrpL, hrpN, and hrpS was carried out as described (Peng et al., 2006). Briefly, the wild-type Ech3937 and the mutant strains carrying the promoter reporter plasmid were grown on LB broth at 28° C. overnight and transferred to appropriate media. For FACS analysis, samples were collected by centrifugation, washed with 1× phosphate buffer saline (PBS) at 13,000 rpm for 1 min, and re-suspended in 1×PBS to ca 10^6 CFU/ml prior to being run in a FACS Calibur flow cytometer (BD Biosciences, CA). Three replicates were performed for each treatment.
Phenolic compounds constitute an important class of organic substances produced by plants. The phenolic compound SA is a signaling molecule that plays a role in host defenses. OCA and TCA are the biosynthetic precursors of SA and are also reported to induce the expression of defense-related genes in plants. OCA, TCA, and SA were examined to elucidate their effects on the expression of T3SS genes. The expression of the T3SS gene hrpN was examined in MM and MM supplemented with OCA, TCA, and SA, at concentrations of 0.05, 0.1, and 0.2 mM, respectively. FIGS. 2A and 2B show the promoter activities of hrpN in Dickeya dadantii 3937 (Ech3937) grown in MM and MM supplemented with 0.05, 0.1, and 0.2 mM OCA, TCA, and SA at 12 h (FIG. 2A) and 24 h (FIG. 2B) post-inoculation. GFP intensity was determined on gated populations of bacterial cells by flow cytometry and analyzed with the Cell Quest software (BD Biosciences, San Jose, Calif.). The growth of Ech3937 in MM supplemented with different concentrations of OCA, TCA and SA was recorded. Compared with MM alone, the average GFP fluorescence intensity of bacterial cells of Ech3937 (phrpN) was increased approximately 4-fold when 0.05 mM of OCA and TCA were added to the medium (FIGS. 2A, 2B).

hrpL promoter = experiment: GFP reporter plasmid phrpL, flow cytometry of hrpL promoter activity; assay type: cell-based, Dickeya dadantii 3937; settings: Ech3937 (phrpL), MM + 0.1 mM compound, 12 h
Method: as §1

hrpA promoter (T3SS) [1] = experiment: hrpA promoter-probe phrpA in Erwinia amylovora 273, flow cytometry; assay type: cell-based; settings: Ea273 (phrpA), HIM + 100 μM compound
Method in brief: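 Erwinia amylovora 273 carrying an hrpA promoter–GFP fusion (pPROBE-NT) was grown in hrp-inducing medium with 100 μM compound or DMSO. Promoter activity read as GFP intensity by flow cytometry at 6 h and 9 h.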

hrpS promoter = experiment: GFP reporter plasmid phrpS, flow cytometry of hrpS promoter activity; assay type: cell-based, Dickeya dadantii 3937; settings: MM + 0.1 mM compound, 12 h
Method in brief: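 Wild-type Ech3937 and mutant strains carrying the phrpS GFP reporter were grown overnight in LB at 28 °C, then transferred to appropriate media with compounds. Cells were washed and resuspended in PBS to ca 10^6 CFU/ml for flow cytometry, three replicates per treatment.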

hrpA promoter (T3SS) [2] = experiment: GFP reporter plasmid phrpA, flow cytometry (FACS) of hrpA promoter activity; assay type: cell-based, Dickeya dadantii 3937; settings: for GFP Mean Fluorescence Intensity, hrpA promoter: MM + 0.1 mM compound
Method in brief: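 D. dadantii (Ech) 3937 carrying the phrpA promoter–GFP transcriptional fusion was grown in T3SS minimal medium with 100 μM compound, starting from an inoculum of OD600 1.0. GFP was read by flow cytometry at 12 and 24 h. Values are mean fluorescence intensity of three replicates ± SD, with compound-free MM as control.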

## O=C(O)/C=C/c1ccccc1O [Compound 006, Ortho-coumaric acid]
rsmB RNA
  rsmB mRNA relative expression ratio (MM alone normalized to 1): 1.4
hrpN promoter (T3SS); 0.1 mM, 12 h (FIG. 5)
  hrpN expression in Ech3937 and hrpX, hrpY, hrpS mutants, in words: induced the expression of hrpN in Ech3937, but not in hrpX, hrpY, and hrpS mutants
hrpN promoter (T3SS); Ech3937 (phrpN), 6 h
  GFP Mean Fluorescence Intensity, hrpN promoter: 31 ± 3
hrpN promoter (T3SS); Ech3937 (phrpN), 12 h, listed as OCA
  GFP Mean Fluorescence Intensity, hrpN promoter: 94 ± 3 and 91 ± 8
hrpN promoter (T3SS); Ech3937 (phrpN), 24 h
  GFP Mean Fluorescence Intensity, hrpN promoter: 78 ± 8
hrpN promoter (T3SS); hrpL mutant WPP96 (phrpN), 12 h
  GFP Mean Fluorescence Intensity, hrpN promoter: 3.3 ± 0.1
hrpN promoter (T3SS); iaaM mutant Ech138 (phrpN), 6 h
  GFP Mean Fluorescence Intensity, hrpN promoter: 9.1 ± 1.6
hrpN promoter (T3SS); iaaM mutant Ech138 (phrpN), 12 h
  GFP Mean Fluorescence Intensity, hrpN promoter: 33 ± 5
hrpN promoter (T3SS); iaaM mutant Ech138 (phrpN), 24 h
  GFP Mean Fluorescence Intensity, hrpN promoter: 39 ± 5
hrpL promoter
  GFP Mean Fluorescence Intensity, hrpL promoter: 19 ± 0
hrpA promoter (T3SS) [1]; 6 h
  Avg MFI ± SD, hrpA expression: 443 ± 16.9
hrpA promoter (T3SS) [1]; 9 h
  Avg MFI ± SD, hrpA expression: 437.8 ± 21.1
hrpS promoter; Ech3937 (phrpS)
  GFP Mean Fluorescence Intensity, hrpS promoter: 56 ± 1
hrpS promoter; hrpL mutant WPP96 (phrpS)
  GFP Mean Fluorescence Intensity, hrpS promoter: 350 ± 17
hrpA promoter (T3SS) [2]; 0.1 mM, 12 h
  change of average GFP fluorescence intensity of Ech3937 (phrpA) vs MM alone, in words: doubled
hrpA promoter (T3SS) [2]; Ech3937 (phrpA), 12 h, listed as OCA
  GFP Mean Fluorescence Intensity, hrpA promoter: 82 ± 1
hrpA promoter (T3SS) [2]; Ech-Rif (phrpA), 6 h
  GFP Mean Fluorescence Intensity, hrpA promoter: 18 ± 0
hrpA promoter (T3SS) [2]; Ech-Rif (phrpA), 12 h
  GFP Mean Fluorescence Intensity, hrpA promoter: 51 ± 2
hrpA promoter (T3SS) [2]; Ech-Rif (phrpA), 24 h
  GFP Mean Fluorescence Intensity, hrpA promoter: 49 ± 1
hrpA promoter (T3SS) [2]; gacA mutant Ech137 (phrpA), 6 h
  GFP Mean Fluorescence Intensity, hrpA promoter: 4.9 ± 0.1
hrpA promoter (T3SS) [2]; gacA mutant Ech137 (phrpA), 12 h
  GFP Mean Fluorescence Intensity, hrpA promoter: 5.9 ± 0.1
hrpA promoter (T3SS) [2]; gacA mutant Ech137 (phrpA), 24 h
  GFP Mean Fluorescence Intensity, hrpA promoter: 8.3 ± 0
hrpA promoter (T3SS) [2]; hrpL mutant WPP96 (phrpA), 12 h
  GFP Mean Fluorescence Intensity, hrpA promoter: 6.5 ± 0.2
